The results in this text go back to PMC11077991, “The small molecule CBR-5884 inhibits the Candida albicans phosphatidylserine synthase” (mBio, 2024).

Assay [1] has as its target purified C. albicans Cho1 (phosphatidylserine synthase) (Candida albicans, UniProt A0A1D8PF32). Briefly: malachite-green-based nucleotidase-coupled assay, dose-response. Type of assay: biochemical. To be noted: top 200 µM, 3 h at 30°C, three replicates. The procedure:
A malachite-green-based nucleotidase-coupled assay was used to measure the PS synthesis activity of Cho1 (Fig. 1B). Cho1 catalyzes the production of PS and cytidylmonophosphate (CMP) from CDP-DAG and serine, where CMP can then be recognized and cleaved by the nucleotidase CD73 to release inorganic phosphate, which is subsequently detected by malachite green. To test whether this malachite-green-based assay can reflect Cho1 activity, a time-course test was performed with a fixed amount of purified Cho1 in the presence of substrates (Fig. 1C).
The bioactives library was purchased from Selleck in 2014, and the remaining libraries (anti-infectives and mechanism of action libraries) were assembled from compounds available at the Chemical Biology and Therapeutics Department at St. Jude Children’s Research Hospital. The anti-infectives library contains a curated list of antimicrobials and antiviral agents ([95]). The bioactive library has a compilation of compounds acquired from commercial sources and external academic collaborators. The mechanism of action set is a dynamic set of well-annotated compounds with comprehensive coverage of human targets and mechanisms of action ([96]). All compounds were dissolved in DMSO and 100 nL was transferred to a 384-well clear bottom plate (ThermoFisher Scientific, cat# 265203) using a Beckman Echo 650 acoustic liquid handler. Equal volumes of either the selective CD73 nucleotidase inhibitor AB680 at a final concentration of 1 µM (MedChemExpress, cat# HY-125286) or DMSO were used as positive and negative controls, respectively. A total of 30–35 ng of purified Cho1 protein was used in each reaction in 50 mM Tris-HCl (pH 8.0) for primary screening, combined with 100 µM CDP-DAG (Avanti, cat# 870510), 5 mM serine, 0.4 ng CD73 nucleotidase (R&D systems, cat# EA002), 1 mM MnCl2, 0.1% APX-100, and 0.1% digitonin, in a total volume of 10 µL. Counter screen reactions were set up by replacing only the purified Cho1 with 150 µM CMP, with all other components remaining constant. The 10 µL primary and counter screening reactions were delivered to each well of 384-well assay plates containing pre-aliquoted compounds from the library using a Multidrop Combi (ThermoFisher Scientific). […] After media transfer, assay plates were incubated for 3 h at 30°C. Plates were then removed and 32 µL of malachite green mixture [6 µL malachite A (2%, wt/vol, ammonium molybdate and 20%, vol/vol, sulfuric acid in H2O) +20 µL H2O + 6 µL malachite B (0.1%, wt/vol, malachite green oxalate and 0.5%, wt/vol, polyvinyl alcohol in H2O)] were added to each well via a MultiDrop Combi and incubated for an additional 10 min at room temperature. After incubation, plates were briefly centrifuged at 500 × g and absorbance at 620 nm was then measured using a Cytation7 plate reader (Biotek, Winooski, VT). Raw absorbance values of the compounds were normalized to DMSO (0% inhibition) and AB680 (100% inhibition) from both primary and counter screens, and % Δinhibition was calculated by […]. Z-factors for each plate were calculated using the in-house program RISE (Robust Investigation of Screening Experiments). All non-PAINs compounds that had >80% Δinhibition progressed to dose-response testing (82 total compounds). Dose-response experiments were performed in triplicate as described above using a 10-point, threefold serial dilution with the top concentration for each compound tested being 200 µM (range: 0.010161–200 μM). The absorbance at 620 nm was then measured using a PHERAstar FS multilabel reader (BMG, Cary, NC). Raw values were once again normalized to DMSO (0% inhibition) and AB680 (100% inhibition) and Z-factors for each plate were calculated using RISE. […]

Assay [2] has as its system crude membrane containing Cho1. Put plainly: radioactive PS synthase assay on crude membrane containing Cho1. It counts as biochemical, Candida albicans. The settings on record: compounds at 1 mM. The procedure:
Enzymatic activity of Cho1 in the presence of the compounds was measured using the radioactive PS synthase assay. For purified Cho1, the procedure was fully described in reference ([33]). Briefly, 1–2 μg of purified Cho1 was added to the reaction containing 50 mM Tris-HCl (pH 8.0), 1 mM MnCl2, 0.1% Triton X-100, 0.04% digitonin, 0.1 mM (4.7 mol %), 16:0 CDP-DAG (Avanti, cat# 870510), and 0.5 mM L-serine [spiked with 5% (by volume) L-[^3H]-serine (15 Ci/mmol)] at a total volume of 100 µL, in the presence of 100 µM of each compound or equivalent DMSO solvent. The reaction was conducted at 30°C for 30 min, and [^3H]PS produced in the reaction was measured using a liquid scintillation counter. For crude membrane samples, crude membrane preps from wildtype and cho1ΔΔ strains were collected and assayed as described in reference ([33]) with the exception that 2 mM L-serine [spiked with 5% (by volume) L-[^3H]-serine (15 Ci/mmol)] was used in each reaction. A final concentration of 1 mM of each compound was used for the crude membrane samples.

Where [3] appears, read: Best-fit IC50, inhibition of Cho1, 10-point dose-response.

Values joined by “and” are separate entries in the source; they are usually repeats but may differ in a detail not shown here. Equal values may be shown once. Read-outs that look alike come from different tables or passages of the source. A value given as a limit tells only on which side of the number the result lay.

Sequence of purified C. albicans Cho1 (phosphatidylserine synthase) (A0A1D8PF32 entry or part of it): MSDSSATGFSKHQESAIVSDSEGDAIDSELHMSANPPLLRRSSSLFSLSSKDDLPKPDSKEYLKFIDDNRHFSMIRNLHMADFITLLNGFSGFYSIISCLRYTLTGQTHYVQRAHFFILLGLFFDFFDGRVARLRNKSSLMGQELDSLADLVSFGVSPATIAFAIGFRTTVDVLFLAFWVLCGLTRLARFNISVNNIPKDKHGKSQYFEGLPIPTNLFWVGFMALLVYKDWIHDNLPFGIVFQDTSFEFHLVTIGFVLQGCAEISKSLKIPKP

Turning to `O=C(C1CC1)N1CCN(Cn2sc3ccccc3c2=O)CC1` [LOC14], the IC50 (commonly the concentration that inhibits the measured activity by half) in assay [1] (10-point dose-response, read-out: Best-fit IC50, inhibition of Cho1) was about 75.5 µM. Also, in assay [2], the “PS production in native crude membranes” value was “decreased PS production”.

With `CCOC(=O)c1sc(NC(=O)c2ccco2)c(SC#N)c1C` [CBR-5884], the IC50 in assay [1] (setting [3]) was ≤ 20 µM and ~8.44 µM. Also, the “PS production in native crude membranes” value in assay [2] is reported as “decreased PS production”.

As to `O=c1c2ccccc2[se]n1-c1ccccc1` [Ebselen], the IC50 in assay [1] (setting [3]) is ≤ 20 µM and ~11.1 µM and 11.1 µM. Besides, the “PS production in native crude membranes” value in assay [2] is listed as “decreased PS production”.
